# Measurements from US20090317335A1, “Hybrid Nanomaterials as Multimodal Imaging Contrast Agents” (priority 2006, published 2009).
# Experiment: MR relaxivity (T1/T2) on 3.0 Tesla MRI scanner
# Assay type: physicochemical
# Experimental: Thermogravimetric analysis (TGA) was performed using a Shimadzu TGA-50 (Shimadzu Corp., Kyoto, Japan) equipped with a platinum pan and heated at a rate of 3° C./min under air. A Hitachi 4700 field emission scanning electron microscope (SEM; Hitachi Ltd., Tokyo, Japan) and a JEM 100CX-II transmission electron microscope (JEOL Ltd., Tokyo, Japan) were used to determine particle size and morphology. Scanning electron microscope (SEM) images of the nanoparticles were taken on glass substrate. A Cressington 108 Auto Sputter Coater (Cressington Scientific Instruments, Ltd., Watford, United Kingdom) equipped with an Au/Pd (80/20) target and M™-10 thickness monitor was used to coat the sample with approximately 5 nm of conductive layer before taking SEM images. Gd^3+ ion concentration was measured on a SpectraSpan7 Direct Current Plasma (DCP) Spectrometer (Applied Research Laboratories, La Brea, Calif., United States of America). […] T1 and T2 values were determined on a Bruker 3.0 Tesla full body Magnetic Resonance Imaging (MRI) scanner (Bruker BioSpin MRI GmbH, Ettlingen, Germany). […] Fluorescence microscope images were taken with a Zeiss Axiovert 100 TV Fluorescence Microscope (Carl Zeiss, Inc., Thornwood, N.Y., United States of America) using a FITC filter. T1 values were obtained using the standard inversion-recovery method, whereas T2 values were determined using spin-echo pulse sequences. […]
Substance,"longitudinal relaxivity (r1) (per mM of Gd^3+ (metal ion), 3.0 Tesla scanner, water or 0.1% Xanthan gum) [s⁻¹]","r1 (molecular complex, for comparison with 1) [s^−1 mM^−1 Gd^3+]"
bis(aminopropyl-triethoxysilyl)diethylenetriamine pentaacetate gadodiamide [Gd—Si-DTPA complex],6.2,–
gadolinium (aminopropyltrimethoxysilyl) diethylenetriamine tetraacetate [Gd—Si-DTTA complex],–,6.8
